The source of these data is patent US20250214966A1, “Crystalline Salt Form Of A SHP2 Inhibitor” (Array BioPharma Inc., priority 2022, published 2025).

Read-outs that look alike come from different tables or passages of the source.

As usually defined, the solubility is the concentration that dissolves in the medium under given conditions.

Holding throughout (assay type): physicochemical
A short description of data set [1]: Solubility of salts in buffer systems at 37° C. (Table 14). As to conditions: 20 mg in 1 mL; for solubility at 18 h: thermodynamic from solid. On the procedure: The solubility (Table 14) was determined by adding 20 mg of salts (Examples 3 to 8) into 3 HPLC vials, to each vial, a magnetic stirrer bar was added along with 1 mL of the appropriate buffer system (pH 1.2 HCl, pH 4.5 sodium acetate, or pH 6.8 phosphate). The samples were agitated at 37° C. for […]. After 24 hours, the slurries were isolated by centrifugation filtration and isolated mother liquors were analyzed by HPLC.
HPLC method (Table 14): A Dionex Ultimate 3000 HPLC instrument was used with a Waters XSelect HSS T3 Column (100 angstrom, 4.6×150 mm, 5 μm). The column temperature was set to 20° C., the UV wavelength set to 254 nm, the injection volume was 10 μL, with a flow rate of 1.0 mL/min. 10 mM ammonium acetate adjusted to pH 4.8 was used as a mobile phase A, and acetonitrile was used as mobile phase B. The gradient method was set up to achieve 15% mobile phase B at 0 minutes, 95% mobile phase B at 17 minutes—held until 22 minutes, 15% mobile phase B at 22.1 minutes—held until 28 minutes.

Data set [2] is described as follows: TGA/DSC of salts (Table 14). To be noted: 10° C./min. On the procedure: TGA/DSC (Table 14): Approximately, 5-10 mg of material was added into a pre-tared open aluminum pan and loaded into a TA Instruments Discovery SDT 650 Auto—Simultaneous DSC and held at room temperature. The sample was then heated at a rate of 10° C./min from 20° C. (ambient) to 400° C. during which time the change in sample weight was recorded along with the heat flow response (DSC). Nitrogen was used as the sample purge gas, at a flow rate of 200 cm3/min.
DSC (Table 14): Approximately, 1-5 mg of material was weighed into an aluminum DSC pan and sealed nonhermetically with an aluminum lid. The sample pan was then loaded into a TA Instruments Discovery DSC 2500 differential scanning calorimeter equipped with a RC90 cooler. The sample and reference were heated to 310° C. at a scan rate of 10° C./min and the resulting heat flow response monitored. The sample was re-cooled to 20° C. and then reheated again to 205° C. all at 10° C./min. Nitrogen was used as the purge gas, at a flow rate of 50 cm^3/min.

Data set [3] can be described thus: Dynamic vapor sorption of salts (Table 14). As to conditions: 25° C.; for DVS weight change: ramping 40-90% RH. On the procedure: DVS (Table 14): Approximately, 10-20 mg of sample was placed into a mesh vapor sorption balance pan and loaded into a DVS Intrinsic dynamic vapor sorption balance by Surface Measurement Systems. The sample was subjected to a ramping profile from 40-90% relative humidity (RH) at 10% increments, maintaining the sample at each step until a stable weight had been achieved (dm/dt 0.004%, minimum step length 30 minutes, maximum step length 500 minutes) at 25° C. After completion of the sorption cycle, the sample was dried using the same procedure to 0% RH and then a second sorption cycle back to 40% RH. Two cycles were performed. Theweight change during the sorption/desorption cycles were plotted, allowing for the hygroscopic nature of the sample to be determined. XRPD analysis was then carried out on any solid retained. […] The sample was subjected to a ramping profile from 40-90% relative humidity (RH) at 10% increments, maintaining the sample at each step until a stable weight had been achieved (dm/dt 0.004%, minimum step length 30 minutes, maximum step length 500 minutes) at 25° C. After completion of the sorption cycle, the sample was dried using the same procedure to 0% RH and then a second sorption cycle back to 40% RH. Two cycles were performed. The weight change during the sorption/desorption cycles were plotted, allowing for the hygroscopic nature of the sample to be determined. XRPD analysis was then carried out on any solid retained.

The mark [4] stands for this setting: pH 1.2 HCl buffer, simulated gastric fluid, pH 1.2 HCl, read-out: Solubility pH 1.2 HCl.
[5] abbreviates: pH 4.5 sodium acetate buffer, aqueous buffer, pH 4.5 sodium acetate, read-out: Solubility pH 4.5 Sodium Acetate.
[6] abbreviates: pH 6.8 phosphate buffer, aqueous buffer, pH 6.8 phosphate, read-out: Solubility Ph 6.8 Phosphate.

Regarding `Nc1nccc(Sc2cnc(N3CCC4(CC3)Cc3ccccc3[C@H]4N)nn2)c1Cl.O=P(O)(O)O` [Example 4, (S)-1′-(6-((2-Amino-3-chloropyridin-4-yl)thio)-1,2,4-triazin-3-yl)-1,3-dihydrospiro[indene-2,4′-piperidin]-1-amine phosphate (Pattern 1)], in data set [1] (pH 1.2 HCl), the “Solubility pH 1.2 HCl (mg/mL)” value is over 20 mg/mL. Moreover, in data set [1] (pH 4.5 sodium acetate), the Solubility pH 4.5 Sodium Acetate worked out at 0.3 mg/mL. The “Solubility Ph 6.8 Phosphate” value in data set [1] (pH 6.8 phosphate) was determined as 9300 µg/mL. In addition, in data set [2], the “TGA/DSC Melt/degradation” value is 100 °C. Also, in data set [3], the DVS hygroscopic nature entry was “Hygroscopic” and the DVS weight change is recorded as 6.3%.

For `Nc1nccc(Sc2cnc(N3CCC4(CC3)Cc3ccccc3[C@H]4N)nn2)c1Cl.O=P(O)(O)O` [Example 5, (S)-1′-(6-((2-Amino-3-chloropyridin-4-yl)thio)-1,2,4-triazin-3-yl)-1,3-dihydrospiro[indene-2,4′-piperidin]-1-amine phosphate (Pattern 2)], the “Solubility pH 1.2 HCl (mg/mL)” value in data set [1] (pH 1.2 HCl) is over 20 mg/mL. For the same molecule, the Solubility pH 4.5 Sodium Acetate in data set [1] (pH 4.5 sodium acetate) is 0.4 mg/mL. The “Solubility Ph 6.8 Phosphate” value in data set [1] (pH 6.8 phosphate) came out at 1900 µg/mL. Moreover, the “TGA/DSC Melt/degradation” value in data set [2] is 174 °C. Further, in data set [3], the DVS hygroscopic nature entry is given as “Hygroscopic” and the DVS weight change is 7.6%.

As for `Nc1nccc(Sc2cnc(N3CCC4(CC3)Cc3ccccc3[C@H]4N)nn2)c1Cl.O=C(O)/C=C/C(=O)O` [Example 6, (S)-1′-(6-((2-Amino-3-chloropyridin-4-yl)thio)-1,2,4-triazin-3-yl)-1,3-dihydrospiro[indene-2,4′-piperidin]-1-amine fumarate], the solubility at 18 h in data set [1] (setting [4]) is over 20000 µg/mL; in data set [1] (setting [5]) it was 200 µg/mL; in data set [1] (setting [6]) it was 400 µg/mL. The “TGA/DSC Melt/degradation” value in data set [2] stood at 225.7 °C. Further, the DVS hygroscopic nature entry in data set [3] is given as “Hygroscopic”. In data set [3], the DVS weight change was determined as 2.1%.

As for `Nc1nccc(Sc2cnc(N3CCC4(CC3)Cc3ccccc3[C@H]4N)nn2)c1Cl.O=C(O)C(O)C(O)C(=O)O` [Example 7, (S)-1′-(6-((2-Amino-3-chloropyridin-4-yl)thio)-1,2,4-triazin-3-yl)-1,3-dihydrospiro[indene-2,4′-piperidin]-1-amine tartrate], the solubility at 18 h in data set [1] (setting [4]) was over 20000 µg/mL; in data set [1] (setting [5]), 400 µg/mL; in data set [1] (setting [6]), 1200 µg/mL. Further, the “TGA/DSC Melt/degradation” value in data set [2] turned out to be 187 °C. In data set [3], the DVS hygroscopic nature result is “Hygroscopic”. For the same molecule, the DVS weight change in data set [3] is on record as 5.8%.
